Like-named read-outs stand apart in the source and are kept apart here.

For one series, the target named is T1, P2Y1 receptor (Homo sapiens, UniProt P47900).
T1 construct: expressed in transfected cells
Kind of series: P2Y1 IP1 accumulation HTRF assay, antagonism of agonist MRS2365 in stably transfected cells. In kind it is cell-based. Summed up:
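HTRF IP1 accumulation in stably P2Y1-overexpressing cells, plated the day before. Compounds pre-incubated 1 hour (10-point semi-log curve from 10µM, 0.1% DMSO), then 5nM MRS2365 added for 60 minutes, both at 37°C / 5% CO2. IP1 interpolated from standard curve; IC50 from N ≥ 4 runs.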

A short description of series [1]: CNS penetration, intravenous cassette dosing, brain and plasma by LC-MS/MS. In kind it is in vivo, C57B16/J mice. The conditions noted are these: mouse, iv (0.4 mg/kg), t = 2 hr. Here is the method:
To assess penetration of compounds into the mouse central nervous system, intravenous pharmacokinetic studies were undertaken in C57B16/J mice. In each study, up to five compounds were formulated in a vehicle comprising DMSO, Kolliphor EL and HPCD (20% w/v) to a final dose for each compound of 0.4mg/kg. Compounds were then combined into a single dosing solution and administered together via the intravenous route into 24 mice. Total compound dose administered to each mouse was 2mg/kg. Mice were culled at 0.08, 0.25, 0.5, 1, 2, 4, 8 and 24 hours post dosing, and brain and plasma collected for bioanalysis.
For bioanalysis, compounds were prepared in DMSO and aliquoted together to ensure a final concentration of 1mg/mL per compound in DMSO. Analytical standards were prepared from the initial 1mg/mL stock solution of compound, with a 12-point standard curve range from 0.5ng/mL to 2000ng/mL, with independent quality control tests from 1ng/mL to 1000ng/mL run to validate the standards. All standards and QC samples were matrix matched to eliminate possible suppression. Plasma samples were prepared with a 1:10 dilution in plasma. […]
Supernatents were analysed by LC-MS/MS. […]
(§1) To establish CNS penetration, the ratio of the concentration of each compound in the […] was assessed.

Series [2] can be described thus: CNS penetration, single compound oral or intravenous administration, brain and plasma by LC-MS/MS. Format: in vivo, C57B16/J mice. The conditions noted are these: mouse. Here is the method: To assess pharmacokinetic properties and CNS penetration of compounds, compounds were administered to mice via the oral and intravenous routes. For oral dosing, compound solutions were prepared in a suitable vehicle (such as 10% PEG400/5% Kolliphor EL/85% H2O) at a concentration of 0.5mg/mL. Compounds were dosed via oral gavage at a dosing volume of 10mL/kg to C57B16/J mice, for a final dose of 5mg/kg. Animals were culled at 8 timepoints to 24 hours, and plasma and brain samples collected for bioanalysis.
For intravenous dosing, compound solutions were prepared in a suitable vehicle (such as 10% DMSO/90%HPCD (20%)) at a concentration of 0.2mg/mL. Compound was administered via the intravenous route in a dosing volume of 5mL/kg, for a final dose of 1mg/kg. Animals were culled at various timepoints out to 24 hours, and plasma and brain collected for bioanalysis.
For bioanalysis, compound was prepared in DMSO at a final concentration of 1mg/mL. Analytical standards were prepared from the initial 1mg/mL stock solution of compound, with a 12-point standard curve range from 0.5ng/mL to 2000ng/mL, with independent quality control tests from 1ng/mL to 1000ng/mL run to validate the standards. All standards and QC samples were matrix matched to eliminate possible suppression. Plasma samples were prepared with a 1:10 dilution in plasma. Brain tissue samples were homogenized in 0.1M phosphate buffer solution at a ratio of 1:4, and used without further dilution. Dose solutions were diluted in a control matrix to a relative concentration that fell on the standard curve. Cold acetonitrile containing internal standard was added to all samples, standards, dose samples and QC samples; samples were then centrifuged for 30 minutes at 4000rpm. After centrifugation, supernatant was transferred to a new 96-well plate, diluted with an equal volume of water and mixed thoroughly before LC-MS analysis.
Supernatents were analysed by LC-MS/MS. From the analysis data a response ratio was obtained using the formula Response Ratio = Test Peak Area/Internal Standard Peak Area. From the standard curve, the test peak area was converted to concentration of test compound.
as §1

Where [3] appears, read: Example 2 table, as for example 1.
Setting [4] is: brain, 1 mg/kg, iv, single compound, AUC0-24h, read-out: CNS penetration: total brain to plasma ratio AUC0-24h iv.
[5] abbreviates: brain, 1 mg/kg, iv, single compound, t = 2 h, read-out: CNS penetration: total brain to plasma ratio @ t =2 h iv.
The mark [6] stands for this setting: brain, po, p.o (5 mg/kg), AUC 0-24 h, read-out: CNS penetration: total brain to plasma ratio AUC 0-24 h.
The mark [7] stands for this setting: racemic, 5nM MRS2365, values rounded to nearest whole number, N >= 4.
The mark [8] stands for this setting: single enantiomer, 5nM MRS2365, values rounded to nearest whole number.

T1 sequence (P47900 whole entry): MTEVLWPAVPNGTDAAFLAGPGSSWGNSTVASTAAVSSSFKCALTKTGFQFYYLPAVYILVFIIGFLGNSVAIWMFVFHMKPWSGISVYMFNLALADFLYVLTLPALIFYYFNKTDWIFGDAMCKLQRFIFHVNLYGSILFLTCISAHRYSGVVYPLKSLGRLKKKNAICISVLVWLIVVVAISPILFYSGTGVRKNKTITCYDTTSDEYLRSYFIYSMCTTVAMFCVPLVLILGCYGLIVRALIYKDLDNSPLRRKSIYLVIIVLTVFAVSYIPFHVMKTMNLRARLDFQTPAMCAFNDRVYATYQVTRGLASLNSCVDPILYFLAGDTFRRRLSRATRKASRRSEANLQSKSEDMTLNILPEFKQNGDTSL

In the case of `CC1(C)CN(c2ccccc2NC(=O)Nc2ccc(OC(F)(F)F)cc2)c2c(O)ccc(-c3ccc(Cl)cc3)c21` [RS 1, 1-(2-(4-(4-chlorophenyl)-7-hydroxy-3,3-dimethylindolin-1-yl)phenyl)-3-(4-(trifluoromethoxy)phenyl)urea, reference compound], on P2Y1 receptor (setting [3]), the IC50 is 33 nM. In addition, the “CNS penetration: total brain to plasma ratio” value in series [1] is on record as “BLLQ^d iv”.
In the case of `O=C(Nc1ccc(OC(F)(F)F)cc1)Nc1cccnc1Oc1ccccc1[C@@]1(C(F)(F)F)CCO1` [drawing 315], the IC50 on P2Y1 receptor (setting [3]) was 68 nM. Besides, the results for the Kp at 24 h in series [2] (setting [4]) and in series [2] (setting [6]) were 3.3 and 2.6, respectively. Also, in series [2] (setting [5]), the Kp at 2 h turned out to be 2.8.
The compound `O=C(Nc1ccc(OC(F)(F)F)cc1)Nc1cccnc1Oc1ccccc1C1(C(F)(F)F)CCO1` (centres unmarked) showed an IC50 at P2Y1 receptor (setting [3]) of 84 nM. Moreover, the Kp in series [2] (C57B16/J, brain and plasma, 1 mg/kg, iv, single compound, AUC0-24h, read-out: CNS penetration: total brain to plasma ratio AUC0-24h iv) was determined as 2.1; in series [2] (C57B16/J, brain and plasma, oral, p.o (5 mg/kg), AUC 0-24 h, read-out: CNS penetration: total brain to plasma ratio AUC 0-24 h) it was 1.9. Besides, in series [2] (C57B16/J, brain and plasma, 1 mg/kg, iv, single compound, t = 2 h, read-out: CNS penetration: total brain to plasma ratio @ t =2 h iv), the Kp at 2 h came to 1.7.
With `O=C(Nc1ccc(OC(F)(F)F)cc1)Nc1cccnc1Oc1ccccc1[C@]1(C(F)(F)F)CCO1` [drawing 316], the IC50 on P2Y1 receptor (setting [3]) is 119 nM. In addition, the figures for the Kp at 24 h in series [2] (setting [4]) and in series [2] (setting [6]) were 3.1 and 2.4, respectively. Besides, the Kp at 2 h in series [2] (setting [5]) came to 3.2.
`Cc1ccc(NC(=O)Nc2ccc(OC(F)(F)F)cc2F)c(Oc2ccccc2[C@@]2(C(F)(F)F)CCO2)n1` [drawing 319] gave an IC50 at P2Y1 receptor (setting [3]) of 34 nM. In addition, in series [2] (setting [6]), the Kp at 24 h is 1.7.
In the case of `Cc1ccc(NC(=O)Nc2ccc(Cl)cc2F)c(Oc2ccccc2[C@@]2(C(F)(F)F)CCO2)n1` [drawing 320], at P2Y1 receptor (setting [3]), the IC50 was 41 nM. The Kp at 24 h in series [2] (setting [6]) worked out at 1.3.
`O=C(Nc1ccc(Cl)cc1)Nc1ccc(Cl)nc1Oc1ccccc1C1(C(F)(F)F)CCO1` (racemic) [S24, 1-(6-chloro-2-(2-(2-(trifluoromethyl)oxetan-2-yl)phenoxy)pyridin-3-yl)-3-(4-chlorophenyl)urea] came in with an IC50 on P2Y1 receptor (setting [7]) of 145 nM.
The same measure, in the same setting: next, `O=C(Nc1ccc(OC(F)(F)F)cc1F)Nc1cccnc1Oc1ccc(F)cc1C1(C(F)(F)F)CCO1` (racemic) [S21, 1-(2-(4-fluoro-2-(2-(trifluoromethyl)oxetan-2-yl)phenoxy)pyridin-3-yl)-3-(2-fluoro-4-(trifluoromethoxy)phenyl)urea]: 140 nM.
Consider `Cc1ccc(NC(=O)Nc2ccc(OC(F)(F)F)cc2)c(Oc2ccccc2C2(C(F)(F)F)CCN2C)n1` (racemic) [S6], for which the concentration for half-maximal inhibition (IC50) on P2Y1 receptor (setting [7]) was 50 nM.
Take `COc1ncc(NC(=O)Nc2cccnc2Oc2ccc(F)cc2C2(C(F)(F)F)CCO2)cc1F` (racemic) [S68, 1-(2-(4-fluoro-2-(2-(trifluoromethyl)oxetan-2-yl)phenoxy)pyridin-3-yl)-3-(5-fluoro-6-methoxypyridin-3-yl)urea]: the IC50 at P2Y1 receptor (setting [7]) came to 1330 nM.
For the compound `Cc1ccc(NC(=O)Nc2ccc(OC(F)(F)F)cc2)c(Oc2ccccc2C(C)(C)C)n1` [RS2, 1-(2-(2-(tert-butyl)phenoxy)-6-methylpyridin-3-yl)-3-(4-(trifluoromethoxy)phenyl)urea], the “CNS penetration: total brain to plasma ratio” value in series [1] is recorded as “BLLQ^d iv”.
At P2Y1 receptor (setting [8]), `CN1CC[C@@]1(c1ccccc1Oc1ncccc1NC(=O)Nc1ccc(OC(F)(F)F)cc1)C(F)(F)F` [S115] returned an IC50 of 39 nM.
Regarding `COc1ccc(F)c(NC(=O)Nc2cccnc2Oc2ccc(F)cc2C2(C(F)(F)F)CCO2)c1` (racemic) [S57, 1-(2-(4-fluoro-2-(2-(trifluoromethyl)oxetan-2-yl)phenoxy)pyridin-3-yl)-3-(2-fluoro-5-methoxyphenyl)urea], the IC50 at P2Y1 receptor (setting [7]) is 589 nM.
Compound `O=C(Nc1ccc(C(F)(F)F)nc1)Nc1cccnc1Oc1ccccc1C1(C(F)(F)F)CCO1` (racemic) [S71, 1-(2-(2-(2-(trifluoromethyl)oxetan-2-yl)phenoxy)pyridin-3-yl)-3-(6-(trifluoromethyl)pyridin-3-yl)urea] came in with an IC50 at P2Y1 receptor (setting [7]) of 1480 nM.
In turn, `Fc1ccc(Oc2ncccc2Nc2nc3ccc(OC(F)(F)F)cc3[nH]2)c(C2(C(F)(F)F)CCO2)c1` (racemic) [S121] came in with a 50% inhibitory concentration (IC50) at P2Y1 receptor (setting [7]) of 1440 nM.
On P2Y1 receptor (setting [7]), `O=C(Nc1ccc(OC(F)F)cc1)Nc1cccnc1Oc1ccccc1C1(C(F)(F)F)CCO1` (racemic) [S43] displayed an IC50 of 334 nM. Compared with the last compound, the IC50 is about 4.3-fold lower.
At P2Y1 receptor (setting [7]), `FC(F)c1nnc(Nc2cccnc2Oc2ccccc2C2(C(F)(F)F)CCO2)s1` (racemic) [S82] gave an IC50 of 4530 nM.
On to `O=C(Nc1cc(F)c(Cl)cc1F)Nc1cccnc1Oc1ccccc1[C@@]1(C(F)(F)F)CCO1` (single isomer, unassigned) [S100], for which the IC50 on P2Y1 receptor (setting [8]) was determined as 44 nM.
For the compound `COc1ccc(NC(=O)Nc2cccnc2Oc2ccccc2C2(C(F)(F)F)CCO2)c(F)c1` (racemic) [S51, 1-(2-fluoro-4-methoxyphenyl)-3-(2-(2-(2-(trifluoromethyl)oxetan-2-yl)phenoxy)pyridin-3-yl)urea], the IC50 at P2Y1 receptor (setting [7]) amounted to 473 nM.
As to `CCN1CCC1(c1ccccc1Oc1ncccc1NC(=O)Nc1ccc(OC(F)(F)F)cc1)C(F)(F)F` (racemic) [S5], the concentration for half-maximal inhibition (IC50) at P2Y1 receptor (setting [7]) came to 43 nM.
The same measure, in the same setting: next, `O=C(Nc1ccc(OC(F)(F)F)cc1)Nc1cccnc1Oc1ccccc1C1(C(F)(F)F)CCO1` (racemic) [S11, 1-(4-(trifluoromethoxy)phenyl)-3-(2-(2-(2-(trifluoromethyl)oxetan-2-yl)phenoxy)pyridin-3-yl)urea]: 84 nM.
Regarding `Cc1c(Oc2ncccc2NC(=O)Nc2ccc(OC(F)(F)F)cc2)cccc1N1CC(C)(C)C1` [S93], the IC50 at P2Y1 receptor (setting [7]) is 683 nM.
`Cc1ncc(NC(=O)Nc2ccc(OC(F)(F)F)cc2F)c(Oc2ccccc2C2(C(F)(F)F)CCO2)n1` (racemic) [S45]: the IC50 on P2Y1 receptor (setting [7]) stood at 382 nM.
As to `CN1CC[C@@]1(c1ccccc1Oc1ncccc1NC(=O)Nc1ccc(OC(F)(F)F)cc1)C(F)(F)F` (single isomer, unassigned), on P2Y1 receptor (setting [3]), the IC50 is 39 nM. In series [2] (C57B16/J, brain and plasma, po, p.o (5 mg/kg), value at t = 2h, read-out: CNS penetration: total brain to plasma ratio po (value at t = 2h)), the Kp at 2 h was 2.4.
Regarding `O=C(Nc1cccnc1Oc1ccccc1C1(C(F)(F)F)CCO1)NC1CC2(CC2)C1` (racemic) [S74], on P2Y1 receptor (setting [7]), the IC50 stood at 2140 nM.

In general, IC50 refers to the midpoint of a concentration-inhibition curve. Lower therefore signals inhibition by little substance.

The values are drawn from patent EP4095134A1, “POLYCYCLIC COMPOUNDS FOR THE TREATMENT OF NEUROLOGICAL INDICATIONS” (UCL Business Ltd, priority 2021, dated 2022).
